# Assay results: patent US8697691B2, “Alkyl 3-((2-amidoethyl)amino)-8-azabicyclo[3.2.1]octane-8-carboxylate analogs as selective M1 agonists and methods of making and using same” (Vanderbilt University, priority 2009, dated 2014)
# Where two headings read alike, the source gives them in different places.
# Target: T1, human M1 receptor (Homo sapiens, UniProt P11229)
# T1 construct: host or cells: CHO-K1
# T1 sequence (P11229 1-460): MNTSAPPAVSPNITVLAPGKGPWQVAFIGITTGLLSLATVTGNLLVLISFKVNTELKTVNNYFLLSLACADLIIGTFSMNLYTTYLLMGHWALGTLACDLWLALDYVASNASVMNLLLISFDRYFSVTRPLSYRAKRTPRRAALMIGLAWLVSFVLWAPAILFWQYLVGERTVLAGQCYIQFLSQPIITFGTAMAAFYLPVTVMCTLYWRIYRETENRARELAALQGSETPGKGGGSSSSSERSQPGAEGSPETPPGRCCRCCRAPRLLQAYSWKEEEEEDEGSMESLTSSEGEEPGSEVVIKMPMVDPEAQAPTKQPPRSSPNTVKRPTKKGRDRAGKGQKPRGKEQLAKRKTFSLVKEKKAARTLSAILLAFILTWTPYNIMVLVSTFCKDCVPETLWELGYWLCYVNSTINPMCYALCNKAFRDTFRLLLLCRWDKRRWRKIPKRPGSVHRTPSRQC
# Test: Calcium mobilization assay, CHO-K1 cells stably expressing hM1 (high throughput, FDSS 6000)
# Assay type: cell-based
# Details: for Emax: CHO-K1, read-out: Efficacy (% Max ACh)
# From the text: Chinese hamster ovary (CHO-K1) cells stably expressing rat (r)M1 were purchased from the American Type Culture Collection and cultured according to their indicated protocol. CHO cells stably expressing human (h)M2, hM3, and hM5 were described previously (Levey et al., 1991); hM1 and hM4 cDNAs were purchased from Missouri S&T cDNA Resource; rM4 cDNA was provided by T. I. Bonner (National Institutes of Health, Bethesda, Md.). hM1, hM4, and rM4 cDNAs were used to stably transfect CHO-K1 cells purchased from the American Type Culture Collection using Lipofectamine2000. To make stable hM2, hM4 and rM4 cell lines for use in calcium mobilization assays, these cells also were stably transfected with a chimeric G-protein (Gqi5) (provided by B. R. Conklin, University of California, San Francisco) using Lipofectamine 2000. rM1, hM3, and hM5 cells were grown in Ham's F-12 medium containing 10% heat-inactivated fetal bovine serum (FBS), 20 mM HEPES, and 50 μg/mL G418 sulfate. hM2-Gqi5 and hM4-Gqi5 cells were grown in the same medium also containing 500 μg/mL Hygromycin B. Stable rM4-Gqi5 cells were grown in DMEM containing 10% heat-inactivated FBS, 20 mM HEPES, 400 μg/mL G418 sulfate, and 500 μg/mL Hygromycin B. The rat M1 Y381A orthosteric mutant receptor cDNA was generated using the Quik-Change site-directed mutagenesis kit (Stratagene) and verified by sequencing. CHO-K1 cells were stably transfected with this cDNA using Lipofectamine2000 and screened for expression based on calcium mobilization in response to the allosteric M1 agonist N-desmethylclozapine.
# For high throughput measurement of agonist-evoked increases in intracellular calcium, CHO-K1 cells stably expressing muscarinic receptors were plated in growth medium lacking G418 and hygromycin at 15,000 cells/20 μL/well (hM1, hM2-Gqi5, hM3, hM4-Gq15, and hM5) in Greiner 384-well black-walled, tissue culture (TC)-treated, clear-bottom plates (VWR). Cells were incubated overnight at 37° C. and 5% CO2. The next day, cells were washed using an ELX 405 (BioTek) with three washes (50 μL) of assay buffer then aspirated to 15 μL. Next, 5 μL of 8 μM Fluo-4/acetoxymethyl ester (Invitrogen, Carlsbad, Calif.) prepared as a 2.3 mM stock in DMSO and mixed in a 1:1 ratio with 10% (w/v) Pluronic F-127 and diluted in assay buffer was added to the wells and the cell plates were incubated for 45 min at 37° C. and 5% CO2. Dye was removed by washing with the ELX 405 (three 50 μL washes of assay buffer) then aspirated to 20 μL. Agonist and compound master plates were formatted in an 11 point CRC format (1:3 dilutions) in 100% DMSO with a starting concentration of 10 mM using the BRAVO liquid handler (Agilent). Test compound CRCs were then transferred to daughter plates ([…]) using the Echo acoustic plate reformatter (Labcyte, Sunnyvale, Calif.) and then diluted into assay buffer (40 μL) to a 2× stock using a Thermo Fisher Combi (Thermo Fisher Scientific, Waltham, Mass.). Calcium flux was measured using the Functional Drug Screening System (FDSS) 6000 (Hamamatsu Corporation, Tokyo, Japan) as an increase in the fluorescent static ratio. 20 μL of Agonist Compounds were applied to cells using the automated system of the FDSS 6000 at 4 s into the 300 s protocol and the data were collected at 1 Hz. Concentration-response curves were generated using a four-parameter logistical equation in XLfit curve fitting software (IDBS, Bridgewater, N.J.) for Excel (Microsoft, Redmond, Wash.) or Prism (GraphPad Software, Inc., San Diego, Calif.).
# [1] = human M1, agonist-evoked calcium mobilization in CHO-K1 cells, read-out: Potency (EC50)
Structure (SMILES),Emax [%],EC50 [1] [nM],EC50 [nM]
"CCOC(=O)N1[C@@H]2CC[C@H]1C[C@H](NCCNC(=O)N1CCCCC1)C2 [Example 28, ethyl 3((3-exo)-(2-(piperidine-1-carboxamido)ethyl)amino)-8-azabicyclo[3.2.1]octane-8-carboxylate]",46,700,–
"COC(=O)N1C2CCC1CC(NCCNC(=O)c1ccccc1)C2 (stereo not drawn) [Example 29, methyl 3-((3-exo)-(2-benzamidoethyl)amino)-8-azabicyclo[3.2.1]octane-8-carboxylate]",7,–,–
"C=CCOC(=O)N1[C@@H]2CC[C@H]1C[C@H](NCCNC(=O)c1ccccc1)C2 [Example 30, allyl 3-((3-exo)-(2-benzamidoethyl)amino)-8-azabicyclo[3.2.1]octane-8-carboxylate]",29,–,–
"CCOC(=O)N1[C@@H]2CC[C@H]1C[C@H](NCCNC(=O)c1ccccc1C)C2 [Example 31, ethyl 3-((3-exo)-(2-(2-methylbenzamido)ethyl)-amino)-8-azabicyclo[3.2.1]octane-8-carboxylate]",38,–,2500
CCOC(=O)N1C2CCC1CC(NCCNC(=O)N1[C@H](C)CCC[C@@H]1C)C2 (stereo partly drawn) [Example 32],26,–,–
"CCOC(=O)N1[C@@H]2CC[C@H]1C[C@H](NCCNC(=O)c1ccc(F)cc1)C2 [Example 33, ethyl 3-((3-exo)-(2-(4-fluorobenzamido)ethyl)-amino)-8-azabicyclo[3.2.1]octane-8-carboxylate]",48,1700,–
"CCOC(=O)N1[C@@H]2CC[C@H]1C[C@H](NCCNC(=O)C1CCCCC1)C2 [Example 34, ethyl 3-((3-exo)-(2-(cyclohexanecarboxamido)-ethyl)amino)-8-azabicyclo[3.2.1]octane-8-carboxylate]",25,3200,–
"CCOC(=O)N1[C@@H]2CC[C@H]1C[C@H](NCCNC(=O)c1cccc(Cl)c1)C2 [Example 35, ethyl 3-((3-exo)-(2-(3-chlorobenzamido)ethyl)-amino)-8-azabicyclo[3.2.1]octane-8-carboxylate]",57,490,–
"CCOC(=O)N1[C@@H]2CC[C@H]1C[C@H](NCCNC(=O)c1cc(F)cc(F)c1)C2 [Example 36, ethyl 3-((3-exo)-(2-(3,5-difluorobenzamido)ethyl)-amino)-8-azabicyclo[3.2.1]octane-8-carboxylate]",37,2600,–
"CC(C)OC(=O)N1C2CCC1CC(NCCNC(=O)c1ccccc1)C2 (stereo not drawn) [Example 37, isopropyl 3-((3-exo)-(2-benzamidoethyl)amino)-8-azabicyclo[3.2.1]octane-8-carboxylate]",7,–,–
"CCOC(=O)N1[C@@H]2CC[C@H]1C[C@H](NCCNC(=O)N1CCOCC1)C2 [Example 38, ethyl 3-((3-exo)-(2-(morpholine-4-carboxamido)ethyl)-amino)-8-azabicyclo[3.2.1]octane-8-carboxylate]",37,3600,–
"CCOC(=O)N1[C@@H]2CC[C@H]1C[C@H](NCCNC(=O)c1ccc(F)c(F)c1)C2 [Example 39, ethyl 3-((3-exo)-(2-(3,4-difluorobenzamido)ethyl)-amino)-8-azabicyclo[3.2.1]octane-8-carboxylate]",46,1400,–
"CCOC(=O)N1[C@@H]2CC[C@H]1C[C@H](NCCNC(=O)c1cccs1)C2 [Example 40, ethyl 3-((3-exo)-(2-(thiophene-2-carboxamido)ethyl)-amino)-8-azabicyclo[3.2.1]octane-8-carboxylate]",15,–,2100
"CCOC(=O)N1C2CCC1CC(NCCNC(=O)c1cccc(OC)c1)C2 (stereo not drawn) [Example 41, ethyl 3-((3-exo)-(2-(3-methoxybenzamido)ethyl)-amino)-8-azabicyclo[3.2.1]octane-8-carboxylate]",19,–,–
CCOC(=O)N1[C@@H]2CC[C@H]1C[C@H](NCCNC(=O)c1ccccc1Cl)C2 [Example 42],25,–,–
